As usually defined, the IC50 is the midpoint of a concentration-inhibition curve.

SMILES strings stand for the structures. Read-outs that look alike come from different tables or passages of the source. Bounds are passed on as bounds.

Results on 30 compounds are retold here after patent US20090042865A1, “DNA-PK INHIBITORS” (priority 2007, published 2009).

The target of assay [1] is DNA-PK (Homo sapiens, UniProt P78527). Briefly: DNA-PK inhibition assay (ELISA, phosphorylation of GST-p53N66). The class given is biochemical, Mammalian (isolated from HeLa cell nuclear extract). Here is the method: In order to assess the inhibitory action of the compounds against DNA-PK in vitro, the following assay was used to determine IC50 values.
To the assay mix, varying concentrations of inhibitor (in DMSO at a final concentration of 1%) were added. After 10 minutes of incubation, ATP was added to give a final concentration of 50 μM along with a 30mer double stranded DNA oligonucleotide (final concentration of 0.5 ng/ml) to initiate the reaction. After 1 hour with shaking, 150 μl of phosphate buffered saline (PBS) was added to the reaction and 5 μl then transferred to a 96 well opaque white plate containing 45 μl of PBS per well where the GSTp53N66 substrate was allowed to bind to the wells for 1 hour. To detect the phosphorylation event on the serine 15 residue of p53 elicited by DNA-PK a p53 phosphoserine-15 antibody (Cell Signaling Technology) was used in a basic ELISA procedure. An anti-rabbit HRP conjugated secondary antibody (Pierce) was then employed in the ELISA before the addition of chemiluminescence reagent (NEN Renaissance) to detect the signal as measured by chemiluminescent counting via a TopCount NXT (Packard).
The enzyme activity for each compound is then calculated using the following equation: […]
These are determined over a range of different concentrations, normally from 10 μM down to 0.001 μM. Such IC50 values are used as comparative values to identify increased compound potencies.
For orientation: ELISA stands for enzyme-linked immunosorbent assay.

Assay [2] deals with PI 3-kinase. The following applies: stated to be the same as towards DNA-PK; cited from earlier work.
The subject of assay [3] is cells. To be noted: cited from earlier work.
Assay [4] has as its system HeLa cells. Put plainly: Survival Enhancement Ratio, clonogenic survival assay after 2 Gray irradiation. The class given is cell-based. The following applies: prior-art compound of WO 03/024949; concentration not given. Here is the method:
The Survival Enhancement Ratio (SER) is a ratio of the enhancement of cell kill elicited by the DNA-PK inhibitor after 2 Grays of irradiation compared to […]. DNA-PK inhibitors were used at a concentration of 25, 50, 100 and/or 500 nM. Radiation was delivered by a Faxitron 43855D machine at a dose rate of 1 Gy pre minute The SER at 2 Gray irradiation was calculated from the formula:
The degree of cell killing was monitored by a standard clonogenic survival assay. Briefly, tissue culture treated 6-well plates were seeded with HeLa cells at an appropriate concentration to give 100-200 colonies per well and returned to the incubator in order to allow the cells to attach. Four hours later, compound or vehicle control was added to the cells. The cells were then incubated for 1 hour in the presence of inhibitor prior to irradiation at 2 Gray using a Faxitron 43855D cabinet X-ray machine. The cells were then incubated for a further 16 hours before the media was replaced with fresh media in the absence of DNA-PK inhibitor. After 8 days, colonies formed were fixed and stained with Giemsa (Sigma, Poole, UK) and scored using an automated colony counter (Oxford Optronics Ltd, Oxford, UK). The data was calculated as described above.

Setting [5] is: IC50 (mean IC50 of the compounds), mean, DNA-PK from HeLa nuclear extract, 50 μM ATP.
[6] abbreviates: mean, DNA-PK from HeLa nuclear extract, 50 μM ATP, read-out: IC50 (mean IC50 of the compounds).

For `O=c1cc(N2CCOCC2)oc2c(-c3ccc(N4CCNCC4)c4c3sc3ccccc34)cccc12` [Compound 1a, 2-Morpholin-4-yl-8-(1-piperazin-1-yl-dibenzothiophen-4-yl)-chromen-4-one], the IC50 in assay [1] (setting [5]) was 11 nM; in assay [1] (IC50, mean IC50), less than 50 nM.

On to `CCN1CCN(c2ccc(-c3cccc4c(=O)cc(N5CCOCC5)oc34)c3sc4ccccc4c23)CC1` [Compound 1b], for which the IC50 in assay [1] (setting [5]) was 8 nM; in assay [1] (IC50, mean IC50) it was less than 50 nM.

Turning to `CC(C)(C)OC(=O)N1CCN(c2ccc(-c3cccc4c(=O)cc(N5CCOCC5)oc34)c3sc4ccccc4c23)CC1` [Compound 1c, 4-[4-(2-Morpholin-4-yl-4-oxo-4H-chromen-8-yl)-dibenzothiophen-1-yl]-piperazine-1-carboxylic acid tert-butyl ester], the 50% inhibitory concentration (IC50) in assay [1] (setting [5]) turned out to be 447 nM.

Turning to `O=c1cc(N2CCOCC2)oc2c(-c3ccc(N4CCN(CCOCCO)CC4)c4c3sc3ccccc34)cccc12` [Compound 1d], the IC50 in assay [1] (setting [5]) was 8 nM; in assay [1] (IC50, mean IC50), less than 50 nM.

As for `CC(C)N1CCN(c2ccc(-c3cccc4c(=O)cc(N5CCOCC5)oc34)c3sc4ccccc4c23)CC1` [Compound 1e], the IC50 in assay [1] (setting [5]) is 17 nM; in assay [1] (IC50, mean IC50) it was less than 50 nM.

Consider `O=c1cc(N2CCOCC2)oc2c(-c3ccc(N4CCC(N5CCOCC5)CC4)c4c3sc3ccccc34)cccc12` [Compound 1f], for which the concentration for half-maximal inhibition (IC50) in assay [1] (setting [5]) is 24 nM; in assay [1] (IC50, mean IC50), less than 50 nM.

Take `CC1CN(c2ccc(-c3cccc4c(=O)cc(N5CCOCC5)oc34)c3sc4ccccc4c23)CC(C)N1` (stereo not shown) [Compound 1g]: the IC50 was 12 nM in assay [1] (setting [5]) and less than 50 nM in assay [1] (IC50, mean IC50).

`CC(C)(C)OC(=O)N1CCCN(c2ccc(-c3cccc4c(=O)cc(N5CCOCC5)oc34)c3sc4ccccc4c23)CC1` [Compound 1h] showed an IC50 in assay [1] (setting [5]) of 86 nM.

In assay [1] (setting [5]), `CC(=O)N1CCN(c2ccc(-c3cccc4c(=O)cc(N5CCOCC5)oc34)c3sc4ccccc4c23)CC1` [Compound 1j] displayed a 50% inhibitory concentration (IC50) of 31 nM.

In assay [1] (setting [5]), `O=C(C1CCCO1)N1CCN(c2ccc(-c3cccc4c(=O)cc(N5CCOCC5)oc34)c3sc4ccccc4c23)CC1` (stereo not shown) [Compound 1k] displayed a 50% inhibitory concentration (IC50) of 80 nM.

In the case of `O=c1cc(N2CCOCC2)oc2c(-c3ccc(N4CCCC(F)C4)c4c3sc3ccccc34)cccc12` (stereo not shown) [Compound 1m], half-maximal inhibition in assay [1] (setting [5]) (IC50) required 136 nM.

`CN(C)C1CCN(c2ccc(-c3cccc4c(=O)cc(N5CCOCC5)oc34)c3sc4ccccc4c23)CC1` [Compound 1n]: the IC50 was 13 nM in assay [1] (setting [5]) and less than 50 nM in assay [1] (IC50, mean IC50).

`CCOC1CCN(c2ccc(-c3cccc4c(=O)cc(N5CCOCC5)oc34)c3sc4ccccc4c23)CC1` [Compound 1o]: the 50% inhibitory concentration (IC50) in assay [1] (setting [5]) is 400 nM.

Regarding `COC1CCN(c2ccc(-c3cccc4c(=O)cc(N5CCOCC5)oc34)c3sc4ccccc4c23)CC1` [Compound 1p], in assay [1] (setting [5]), half-maximal inhibition (IC50) required 173 nM.

On to `CC(=O)C(C)N1CCN(c2ccc(-c3cccc4c(=O)cc(N5CCOCC5)oc34)c3sc4ccccc4c23)CC1` (stereo not shown) [Compound 2a], for which the IC50 in assay [1] (mean IC50, read-out: IC50) was less than 50 nM; in assay [1] (setting [6]) it was 11 nM.

As for `COCCOCCN1CCN(c2ccc(-c3cccc4c(=O)cc(N5CCOCC5)oc34)c3sc4ccccc4c23)CC1` [Compound 2b], the IC50 in assay [1] (mean IC50, read-out: IC50) is less than 50 nM; in assay [1] (setting [6]) it was 4 nM.

On to `COCCN1CCN(c2ccc(-c3cccc4c(=O)cc(N5CCOCC5)oc34)c3sc4ccccc4c23)CC1` [Compound 2c], for which the IC50 in assay [1] (mean IC50, read-out: IC50) was less than 50 nM; in assay [1] (setting [6]), 6 nM.

For the compound `CCOCCN1CCN(c2ccc(-c3cccc4c(=O)cc(N5CCOCC5)oc34)c3sc4ccccc4c23)CC1` [Compound 2e], the IC50 in assay [1] (mean IC50, read-out: IC50) was less than 50 nM; in assay [1] (setting [6]) it was 7 nM.

Turning to `CCCN1CCN(c2ccc(-c3cccc4c(=O)cc(N5CCOCC5)oc34)c3sc4ccccc4c23)CC1` [Compound 2f], the IC50 in assay [1] (mean IC50, read-out: IC50) was less than 50 nM; in assay [1] (setting [6]) it was 11 nM.

In the case of `O=c1cc(N2CCOCC2)oc2c(-c3ccc(N4CCN(CC5CC5)CC4)c4c3sc3ccccc34)cccc12` [Compound 2g], the IC50 was less than 50 nM in assay [1] (mean IC50, read-out: IC50) and 17 nM in assay [1] (setting [6]).

Consider `O=c1cc(N2CCOCC2)oc2c(-c3ccc(N4CCN(CC5CCCO5)CC4)c4c3sc3ccccc34)cccc12` (stereo not shown) [Compound 2i], for which the IC50 in assay [1] (setting [6]) is 21 nM.

Turning to `CCCOCCN1CCN(c2ccc(-c3cccc4c(=O)cc(N5CCOCC5)oc34)c3sc4ccccc4c23)CC1` [Compound 2j], in assay [1] (setting [6]), the IC50 was 9 nM.

On to `O=c1cc(N2CCOCC2)oc2c(-c3ccc(N4CCN(C5CCCCC5O)CC4)c4c3sc3ccccc34)cccc12` (stereo not shown) [Compound 2k], for which, in assay [1] (setting [6]), the IC50 is 43 nM.

Take `NCCN1CCN(c2ccc(-c3cccc4c(=O)cc(N5CCOCC5)oc34)c3sc4ccccc4c23)CC1` [Compound 2l]: in assay [1] (setting [6]), the IC50 is 7 nM.

`O=c1cc(N2CCOCC2)oc2c(-c3ccc(N4CCN(CCO)CC4)c4c3sc3ccccc34)cccc12` [Compound 2m]: the IC50 in assay [1] (mean IC50, read-out: IC50) is less than 50 nM; in assay [1] (setting [6]), 3 nM.

Turning to `CC(C)NC(=O)CN1CCN(c2ccc(-c3cccc4c(=O)cc(N5CCOCC5)oc34)c3sc4ccccc4c23)CC1` [Compound 2o], the IC50 in assay [1] (mean IC50, read-out: IC50) is less than 50 nM; in assay [1] (setting [6]), 7 nM.

As to `CS(=O)(=O)N1CCN(c2ccc(-c3cccc4c(=O)cc(N5CCOCC5)oc34)c3sc4ccccc4c23)CC1` [Compound 3a], the IC50 in assay [1] (mean IC50, read-out: IC50) was less than 50 nM; in assay [1] (setting [6]), 24 nM.

For the compound `CCS(=O)(=O)N1CCN(c2ccc(-c3cccc4c(=O)cc(N5CCOCC5)oc34)c3sc4ccccc4c23)CC1` [Compound 3b], the IC50 in assay [1] (mean IC50, read-out: IC50) was less than 50 nM; in assay [1] (setting [6]) it was 21 nM.

For `O=c1cc(N2CCOCC2)oc2c(-c3ccccc3)cccc12` [LY294002], in assay [2], the IC50 is roughly 1000 nM. Further, the “sensitisation of cells to the effects of IR” value in assay [3] was “weakly sensitise”.

`O=c1cc(N2CCOCC2)oc2c(-c3cccc4c3sc3ccccc34)cccc12` [reference compound] returned a concentration for half-maximal inhibition (IC50) in assay [1] (IC50, prior-art compound of WO 03/024949, methods as below in the patent) of 10 to 12 nM. For the same compound, in assay [4], the SER turned out to be 1.3.
